{"source": "patent US20250375418A1", "about": "“1-(NAPHTHALEN-2-YL)-3-AZABICYCLO[3.1.0]HEXANE FOR TREATING MAJOR DEPRESSIVE DISORDER” (OTSUKA PHARMACEUTICAL CO., LTD., priority 2022, published 2025)", "key": {"[1]": {"assay": "Biopharmaceutics classification (solubility, permeability)", "format": "physicochemical", "source_text": "Described herein are methods of using centanafadine (CTN) or a pharmaceutically acceptable salt thereof for the treatment of central nervous system disorders. […] As used herein, CTN should be understood to refer to centanafadine, while pharmaceutically acceptable salts thereof are also considered in addition to or as one or more alternatives to CTN in every method, use, and formulation described herein, unless explicitly stated otherwise. Centanafadine [CAS 924012-43-1], also known chemically as (1R,5S)-1-(naphthalen-2-yl)-3-azabicyclo[3.1.0]hexane or (+)-1-(naphthalen-2-yl)-3-azabicyclo[3.1.0]hexane, has the following structure: […]"}, "[2]": {"biological_target": "norepinephrine reuptake transporter (NET) (Homo sapiens, UniProt P23975)", "sequence (P23975 whole entry)": "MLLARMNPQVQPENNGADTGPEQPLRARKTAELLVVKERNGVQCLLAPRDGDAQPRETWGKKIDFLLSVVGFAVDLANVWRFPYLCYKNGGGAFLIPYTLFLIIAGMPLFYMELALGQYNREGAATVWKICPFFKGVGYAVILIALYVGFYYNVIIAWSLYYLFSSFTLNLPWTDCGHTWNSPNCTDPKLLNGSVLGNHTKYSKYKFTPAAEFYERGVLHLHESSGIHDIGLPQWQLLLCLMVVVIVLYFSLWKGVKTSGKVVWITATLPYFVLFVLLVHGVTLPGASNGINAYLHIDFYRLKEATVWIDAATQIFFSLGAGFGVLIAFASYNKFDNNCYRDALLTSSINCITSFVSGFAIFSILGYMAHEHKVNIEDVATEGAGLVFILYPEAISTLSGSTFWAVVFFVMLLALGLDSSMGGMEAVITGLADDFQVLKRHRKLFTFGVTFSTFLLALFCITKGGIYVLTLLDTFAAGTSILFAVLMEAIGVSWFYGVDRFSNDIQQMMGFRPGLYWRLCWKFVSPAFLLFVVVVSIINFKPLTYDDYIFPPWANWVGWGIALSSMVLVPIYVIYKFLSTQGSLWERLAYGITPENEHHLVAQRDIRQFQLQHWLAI", "assay": "Reuptake transporter inhibition, NET", "format": "biochemical", "conditions": "relative among NET, DAT, SERT", "source_text": "(§1) and is an unbalanced triple reuptake inhibitor with the most potency towards the norepinephrine reuptake transporter (NET), one-sixth as much towards the dopamine reuptake transporter (DAT), and one-fourteenth as much towards the serotonin reuptake transporter (SERT)."}, "[3]": {"biological_target": "dopamine reuptake transporter (DAT) (Homo sapiens, UniProt Q01959)", "sequence (Q01959 whole entry, species assumed)": "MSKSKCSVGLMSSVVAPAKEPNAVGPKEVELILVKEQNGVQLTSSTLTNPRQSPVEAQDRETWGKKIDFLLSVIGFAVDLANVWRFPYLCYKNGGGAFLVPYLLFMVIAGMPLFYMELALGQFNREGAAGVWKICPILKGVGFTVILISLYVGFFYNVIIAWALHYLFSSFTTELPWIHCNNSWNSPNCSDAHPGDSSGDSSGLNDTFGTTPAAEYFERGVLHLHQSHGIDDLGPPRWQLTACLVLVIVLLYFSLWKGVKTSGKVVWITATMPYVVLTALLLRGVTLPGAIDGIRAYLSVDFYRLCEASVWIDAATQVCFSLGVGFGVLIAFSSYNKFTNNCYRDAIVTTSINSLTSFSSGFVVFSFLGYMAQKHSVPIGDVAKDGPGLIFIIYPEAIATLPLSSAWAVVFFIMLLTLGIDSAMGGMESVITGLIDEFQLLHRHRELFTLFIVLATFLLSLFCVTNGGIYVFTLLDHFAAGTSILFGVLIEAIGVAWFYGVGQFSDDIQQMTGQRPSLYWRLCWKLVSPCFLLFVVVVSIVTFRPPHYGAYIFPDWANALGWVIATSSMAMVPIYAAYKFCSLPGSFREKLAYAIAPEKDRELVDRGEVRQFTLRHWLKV", "assay": "Reuptake transporter inhibition, DAT", "format": "biochemical", "source_text": "as §1"}, "[4]": {"biological_target": "serotonin reuptake transporter (SERT) (Homo sapiens, UniProt P31645)", "sequence (P31645 whole entry, species assumed)": "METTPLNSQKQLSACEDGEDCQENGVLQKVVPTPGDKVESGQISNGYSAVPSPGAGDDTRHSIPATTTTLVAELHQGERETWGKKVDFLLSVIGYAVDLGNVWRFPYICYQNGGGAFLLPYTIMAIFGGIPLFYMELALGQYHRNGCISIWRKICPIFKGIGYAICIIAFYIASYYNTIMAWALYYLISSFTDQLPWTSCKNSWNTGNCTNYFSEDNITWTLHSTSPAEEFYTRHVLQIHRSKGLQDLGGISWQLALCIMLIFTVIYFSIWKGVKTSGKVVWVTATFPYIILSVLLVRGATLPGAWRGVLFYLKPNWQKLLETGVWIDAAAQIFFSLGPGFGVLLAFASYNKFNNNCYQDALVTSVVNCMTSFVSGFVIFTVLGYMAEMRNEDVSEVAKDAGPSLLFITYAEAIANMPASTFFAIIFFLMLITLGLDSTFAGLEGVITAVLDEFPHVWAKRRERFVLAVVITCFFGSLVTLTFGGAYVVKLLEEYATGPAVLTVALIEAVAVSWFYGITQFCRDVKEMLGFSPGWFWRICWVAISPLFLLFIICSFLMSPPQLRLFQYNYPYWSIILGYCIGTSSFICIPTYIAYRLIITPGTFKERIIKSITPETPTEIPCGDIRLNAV", "assay": "Reuptake transporter inhibition, SERT", "format": "biochemical", "source_text": "as §1"}, "[5]": {"assay": "Safety and tolerability (adverse events)", "conditions": "in vivo"}, "[6]": {"system": "adult subjects with MDD", "assay": "Phase 2 trial, centanafadine XR as adjunct to escitalopram in MDD (Example 2)", "format": "in vivo, human", "source_text": "Inclusion and Exclusion criteria are the same as Example 1. In addition, subjects who are taking escitalopram or citalopram at the time of screening, have been exposed to escitalopram or citalopram in their current MDE, or have reported an inadequate response to an adequate dose/duration of escitalopram or citalopram in the past, are also excluded.\nAll subjects receive either escitalopram monotherapy, centanafadine QD XR capsules+escitalopram (combination therapy), or matching placebo, for 6 weeks.\nFor day 1, the escitalopram tablet is a 10 mg QD dose. At Week 1, dosing increases to 20 mg QD for the remainder of subject participation in the trial.\nSubjects assigned to receive escitalopram monotherapy receive a 10 mg QD dose at Day 1. At Week 1, dosing increases to 20 mg QD for the remainder of subject participation in the trial. Dose reductions are not permitted."}, "[7]": {"system": "adult subjects with MDD", "assay": "Phase 2 trial, centanafadine XR monotherapy in MDD (Example 1)", "conditions": "328.8 mg once daily XR"}, "[8]": {"assay": "Plasma pharmacokinetics of a CTN HCl formulation, 164.4 mg dose (Table 11)", "format": "in vivo, human", "conditions": "for Tmax: median", "protocol": "The plasma pharmacokinetics from a CTN HCl formulation having a dose of 164.4 mg can be as in Table 11."}, "[9]": {"assay": "Plasma pharmacokinetics of CTN HCl formulation, 164.4 mg or 328.8 mg, First Day and Fifth Day (Table 12)", "format": "in vivo, human", "conditions": "for AUC ratio / Cmax ratio: Fifth Day/First Day; for Tmax: n = 8, median; for Cmax / AUC(0-t) / concentration at 1 h / concentration at 12 h / concentration at 16 h / AUC(0-inf): n = 8, mean; for AUC(0-t): read-out: AUC0-24 h; for concentration at 1 h: read-out: C1 hr; for concentration at 12 h: read-out: C12 hr; for concentration at 16 h: read-out: C16 hr", "protocol": "The plasma pharmacokinetics from a CTN HCl formulation having a dose of 164.4 mg or 328.8 mg can be as in Table 12."}, "[10]": {"conditions": "human, plasma, 164.4 mg, Fifth Day"}, "[11]": {"conditions": "human, plasma, 164.4 mg, First Day"}, "[12]": {"conditions": "human, plasma, 328.8 mg, First Day"}, "[13]": {"conditions": "human, plasma, oral, 164.4 mg, Fifth Day"}, "[14]": {"conditions": "human, plasma, oral, 164.4 mg, First Day"}, "[15]": {"conditions": "human, plasma, oral, 328.8 mg, Fifth Day"}, "[16]": {"conditions": "human, plasma, oral, 328.8 mg, First Day"}}, "note": "Where “and” joins values, the source holds several entries; their conditions need not be identical. Equal entries are not always repeated. Structures can show the parent of a compound that is named as a salt. Where two headings read alike, the source gives them in different places.", "data": [{"smiles": "c1ccc2cc([C@]34CNC[C@H]3C4)ccc2c1", "note": "[Centanafadine, (1R,5S)-1-(naphthalen-2-yl)-3-azabicyclo[3.1.0]hexane]", "values": [{"measurement": "BSC classification", "setting": "[1]", "result": "Class I"}, {"measurement": "solubility", "setting": "[1]", "result": "highly soluble"}, {"measurement": "permeability", "setting": "[1]; not told", "result": "highly permeable"}, {"measurement": "potency towards NET", "setting": "[2]", "result": "most potency"}, {"measurement": "potency towards DAT relative to NET", "setting": "[3]", "result": "one-sixth"}, {"measurement": "potency towards SERT relative to NET", "setting": "[4]", "result": "one-fourteenth"}, {"measurement": "safety and tolerability, rate of adverse events (AEs)", "setting": "[5]", "result": "generally safe and well tolerated"}, {"measurement": "mean decrease of primary efficacy measures (MADRS Total score)", "setting": "[6]; 6 weeks combination therapy (centanafadine XR 328.8 mg + escitalopram 10-20 mg QD) vs escitalopram monotherapy", "result": "greater"}, {"measurement": "efficacy as adjunct therapy to SSRI (escitalopram) in patients with MDD", "setting": "[6]; centanafadine XR 328.8 mg + escitalopram, 6 weeks", "result": "effective as an adjunct therapy"}, {"measurement": "SF-36v2 general scores from baseline", "setting": "[7]; 6 weeks", "result": "Increased"}, {"measurement": "efficacy as monotherapy in patients with MDD", "setting": "[7]; 6 weeks", "result": "effective as monotherapy"}, {"measurement": "risk for depression (SF-36v2)", "setting": "[7]; 6 weeks", "result": "reduced"}, {"measurement": "CGI-C scores", "setting": "[7]; 6 weeks, vs placebo", "result": "significant reductions"}, {"measurement": "CGI-S scores from baseline", "setting": "[7]; 6 weeks, vs placebo", "result": "significant reductions"}, {"measurement": "PGI-C scores", "setting": "[7]; 6 weeks, vs placebo", "result": "significant reductions"}, {"measurement": "PGI-S scores from baseline", "setting": "[7]; 6 weeks, vs placebo", "result": "significant reductions"}, {"measurement": "primary efficacy measures (MADRS Total score)", "setting": "[7]; after 6-week double-blind treatment, vs placebo", "result": "significantly reduces"}]}, {"smiles": "c1ccc2cc([C@]34CNC[C@H]3C4)ccc2c1", "note": "[Centanafadine HCl]", "values": [{"measurement": "AUC0-24 h", "setting": "[8]", "result": 5290, "unit": "ng·h/mL"}, {"measurement": "C1 hr", "setting": "[8]", "result": "302 ng/mL and 321 ng/mL and 358 ng/mL"}, {"measurement": "C12 hr", "setting": "[8]", "result": "186 ng/mL and 220 ng/mL and 289 ng/mL"}, {"measurement": "Cmax", "setting": "[8]", "result": "618 ng/mL and 629 ng/mL"}, {"measurement": "Tmax", "setting": "[8]; human, oral, read-out: tmax", "result": "4 to 7.5", "unit": "h"}, {"measurement": "AUC(0-inf)", "setting": "[8]; human, oral, n = 11, read-out: AUC0-inf", "result": "5000 to 8000", "unit": "ng·h/mL"}, {"measurement": "AUC(0-t)", "setting": "[8]; human, oral, read-out: AUC0-1 h", "result": "150 to 500", "unit": "ng·h/mL"}, {"measurement": "AUC(0-t)", "setting": "[8]; human, oral, read-out: AUC0-24 h", "result": "4500 to 7500", "unit": "ng·h/mL"}, {"measurement": "Cmax", "setting": "[8]; human, oral, read-out: Cmax", "result": "500 to 700", "unit": "ng/mL"}, {"measurement": "Tmax", "setting": "[8]", "result": "4.5 h and 5 h"}, {"measurement": "AUC(0-inf)", "setting": "[8]; n = 11", "result": "6240 ng·h/mL and 7110 ng·h/mL"}, {"measurement": "AUC ratio", "setting": "[9]; 164.4 mg", "result": 0.98}, {"measurement": "Cmax ratio", "setting": "[9]; 164.4 mg", "result": 1.13}, {"measurement": "Tmax", "setting": "[9]; 328.8 mg, Fifth Day", "result": 5.00, "unit": "h"}, {"measurement": "AUC ratio", "setting": "[9]; 328.8 mg", "result": 1.16}, {"measurement": "Cmax ratio", "setting": "[9]; 328.8 mg", "result": 1.31}, {"measurement": "Cmax", "setting": "[9]; [10]", "result": 709, "unit": "ng/mL"}, {"measurement": "AUC(0-t)", "setting": "[9]; [10]", "result": 6650, "unit": "ng·h/mL"}, {"measurement": "Cmax", "setting": "[9]; [11]", "result": 651, "unit": "ng/mL"}, {"measurement": "AUC(0-t)", "setting": "[9]; [11]", "result": 6570, "unit": "ng·h/mL"}, {"measurement": "AUC(0-t)", "setting": "[9]; human, plasma, 328.8 mg, Fifth Day", "result": 18400, "unit": "ng·h/mL"}, {"measurement": "AUC(0-t)", "setting": "[9]; [12]", "result": 16000, "unit": "ng·h/mL"}, {"measurement": "concentration at 1 h", "setting": "[9]; [13]", "result": 427, "unit": "ng/mL"}, {"measurement": "concentration at 12 h", "setting": "[9]; [13]", "result": 276, "unit": "ng/mL"}, {"measurement": "concentration at 16 h", "setting": "[9]; [13]", "result": 103, "unit": "ng/mL"}, {"measurement": "Tmax", "setting": "[9]; human, plasma, oral, 164.4 mg, Fifth Day, read-out: tmax", "result": 5.5, "unit": "h"}, {"measurement": "concentration at 1 h", "setting": "[9]; [14]", "result": 358, "unit": "ng/mL"}, {"measurement": "concentration at 12 h", "setting": "[9]; [14]", "result": 289, "unit": "ng/mL"}, {"measurement": "concentration at 16 h", "setting": "[9]; [14]", "result": 133, "unit": "ng/mL"}, {"measurement": "Tmax", "setting": "[9]; human, plasma, oral, 164.4 mg, First Day, read-out: tmax", "result": 7, "unit": "h"}, {"measurement": "Cmax", "setting": "[9]; [15]", "result": 2230, "unit": "ng/mL"}, {"measurement": "concentration at 1 h", "setting": "[9]; [15]", "result": 718, "unit": "ng/mL"}, {"measurement": "concentration at 12 h", "setting": "[9]; [15]", "result": 646, "unit": "ng/mL"}, {"measurement": "concentration at 16 h", "setting": "[9]; [15]", "result": 211, "unit": "ng/mL"}, {"measurement": "Cmax", "setting": "[9]; [16]", "result": 1940, "unit": "ng/mL"}, {"measurement": "concentration at 1 h", "setting": "[9]; [16]", "result": 640, "unit": "ng/mL"}, {"measurement": "concentration at 12 h", "setting": "[9]; [16]", "result": 750, "unit": "ng/mL"}, {"measurement": "concentration at 16 h", "setting": "[9]; [16]", "result": 306, "unit": "ng/mL"}, {"measurement": "Tmax", "setting": "[9]; human, plasma, oral, 328.8 mg, First Day, read-out: tmax", "result": 4, "unit": "h"}, {"measurement": "AUC(0-inf)", "setting": "[9]; [11]", "result": 7110, "unit": "ng·h/mL"}, {"measurement": "AUC(0-inf)", "setting": "[9]; [12]", "result": 16700, "unit": "ng·h/mL"}]}]}
